From patent US9302999B2, “Substituted triazoles as herbicides” (E. I. DU PONT DE NEMOURS AND COMPANY, priority 2012, dated 2016)

Key:
Assay type in all cases: in vivo
[1] = test system: chickweed (common chickweed, Stellaria media); test: Test C postemergence: chickweed
Outline: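 Visual 0–100 injury score vs untreated controls (0 none, 100 complete control), taken 13–15 d after treatment. Postemergence spray on potted plants, 2–18 cm, 1–4 leaves; greenhouse.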

[2] = test system: pigweed (Amaranthus retroflexus); test: Test A pre-/postemergence: pigweed; conditions: for Pigweed plant response rating: visual rating on 0 to 100 scale (0 no effect, 100 complete control), approximately ten days
Outline: (§1)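 Rating scale 0–100 (100 = complete control), visual, ~10 days after application in the greenhouse. Applications: preemergence directed soil spray; postemergence at 1–2 leaves.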

[3] = test system: ragweed (common ragweed, Ambrosia elation); test: Test C pre-/postemergence: ragweed
Outline: (§2)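 Preemergence on seeds in loam/sand, postemergence on 2–18 cm (1–4-leaf) plants in peat-based medium; compounds in non-phytotoxic solvent with surfactant. After 13–15 days in greenhouse, visual rating versus controls, 0 (no effect) to 100 (complete control).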

[4] = test system: foxtail, giant (giant foxtail, Setaria faberii); test: Test A pre-/postemergence: foxtail, giant; conditions: for Foxtail, Giant plant response rating: Postemergence; for Plant response rating, Foxtail, Giant: Preemergence
Outline: as §1

[5] = test system: wheat (Triticum aestivum); test: Test A pre-/postemergence: wheat; conditions: for Wheat plant response rating: visual rating on 0 to 100 scale (0 no effect, 100 complete control), approximately ten days
Outline: as §1

[6] = test system: morningglory (Ipomoea coccinea); test: Test C pre-/postemergence: morningglory
Outline: as §2

[7] = test system: crabgrass, large (large crabgrass, Digitaria sanguinalis); test: Test A pre-/postemergence: crabgrass, large; conditions: for Crabgrass, Large plant response rating: Postemergence; for Plant response rating, Crabgrass, Large: Preemergence
Outline: as §1

[8] = test system: velvetleaf (Abutilon theophrasti); test: Test A pre-/postemergence: velvetleaf; conditions: for Velvetleaf plant response rating: visual rating on 0 to 100 scale (0 no effect, 100 complete control), approximately ten days
Outline: as §1

[9] = test system: blackgrass (Alopecurus myosuroides); test: Test C pre-/postemergence: blackgrass
Outline: as §2

[10] = test system: barnyardgrass (Echinochloa crus-galli); test: Test B flooded paddy: barnyardgrass; conditions: Flood; 250 g ai/ha; applied to paddy water at 2-leaf stage; visually evaluated after 13 to 15 days
Outline: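 Visual ratings on a 0–100 scale, where 0 means no effect and 100 means complete control, were assigned by comparison with controls 13 to 15 days after treatment. Compounds went into paddy water over 2-leaf plants flooded to 3 cm.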

[11] = 31 g ai/ha, scale 0 to 100 (0 no effect, 100 complete control)
[12] = 62 g ai/ha, scale 0 to 100 (0 no effect, 100 complete control)
[13] = 125 g ai/ha, scale 0 to 100, 0 no effect, 100 complete control
[14] = Postemergence, 125 g ai/ha, 0 to 100 scale, 0 is no effect, 100 is complete control
[15] = Preemergence, 125 g ai/ha, 0 to 100 scale where 0 is no effect and 100 is complete control
[16] = Preemergence, 500 g ai/ha, 0 to 100 scale (0 no effect, 100 complete control)
[17] = Postemergence, 62 g ai/ha, scale 0 to 100 (0 no effect, 100 complete control)
[18] = Postemergence, 125 g ai/ha, scale 0 to 100, 0 no effect, 100 complete control
[19] = Postemergence, 250 g ai/ha, scale 0 to 100
[20] = Preemergence, 31 g ai/ha, scale of 0 to 100, 0 is no effect, 100 is complete control
[21] = Preemergence, 62 g ai/ha, scale of 0 to 100, 0 is no effect, 100 is complete control
[22] = Preemergence, 125 g ai/ha, scale 0 to 100, 0 no effect, 100 complete control
[23] = Preemergence, 250 g ai/ha, scale 0 to 100, 0 no effect, 100 complete control
[24] = 125 g ai/ha, 0 to 100 scale, 0 is no effect, 100 is complete control
[25] = 500 g ai/ha, visual rating on 0 to 100 scale (0 no effect, 100 complete control), approximately ten days
[26] = 125 g ai/ha, 0 to 100 scale where 0 is no effect and 100 is complete control
[27] = 500 g ai/ha, 0 to 100 scale (0 no effect, 100 complete control)
[28] = Postemergence, 31 g ai/ha, scale 0 to 100 (0 no effect, 100 complete control)

COc1nn(-c2cccc(F)c2)nc1Cc1ccnc(C(F)(F)F)c1 [Compound 139]
Plant response rating, Chickweed [1, 11]: 75
Plant response rating, Chickweed [1, 12]: 98
Plant response rating, Chickweed [1, 13]: 98
Plant response rating, Chickweed ([1]; 250 g ai/ha, scale 0 to 100): 100
Plant response rating, Pigweed [2, 14]: 100
Pigweed plant response rating ([2]; Postemergence, 500 g ai/ha): 100
Plant response rating, Pigweed [2, 15]: 100
Plant response rating, Pigweed [2, 16]: 100
Plant response rating, Ragweed [3, 17]: 40
Plant response rating, Ragweed [3, 18]: 45
Plant response rating, Ragweed [3, 19]: 75
Plant response rating, Ragweed [3, 20]: 0
Plant response rating, Ragweed [3, 21]: 0
Plant response rating, Ragweed [3, 22]: 30
Plant response rating, Ragweed [3, 23]: 55
Foxtail, Giant plant response rating [4, 24]: 90
Foxtail, Giant plant response rating [4, 25]: 100
Plant response rating, Foxtail, Giant [4, 26]: 100
Plant response rating, Foxtail, Giant [4, 27]: 100
Plant response rating, Wheat [5, 14]: 30
Wheat plant response rating ([5]; Postemergence, 500 g ai/ha): 40
Plant response rating, Wheat [5, 15]: 10
Plant response rating, Wheat [5, 16]: 50
Plant response rating, Morningglory [6, 28]: 55
Plant response rating, Morningglory [6, 17]: 60
Plant response rating, Morningglory [6, 18]: 60
Plant response rating, Morningglory [6, 19]: 70
Plant response rating, Morningglory [6, 20]: 15
Plant response rating, Morningglory [6, 21]: 15
Plant response rating, Morningglory [6, 22]: 35
Plant response rating, Morningglory [6, 23]: 55
Crabgrass, Large plant response rating [7, 24]: 90
Crabgrass, Large plant response rating [7, 25]: 90
Plant response rating, Crabgrass, Large [7, 26]: 100
Plant response rating, Crabgrass, Large [7, 27]: 100
Plant response rating, Velvetleaf [8, 14]: 90
Velvetleaf plant response rating ([8]; Postemergence, 500 g ai/ha): 100
Plant response rating, Velvetleaf [8, 15]: 30
Plant response rating, Velvetleaf [8, 16]: 90
Plant response rating, Blackgrass [9, 28]: 35
Plant response rating, Blackgrass [9, 17]: 40
Plant response rating, Blackgrass [9, 18]: 70
Plant response rating, Blackgrass [9, 19]: 70
Plant response rating, Blackgrass [9, 20]: 45
Plant response rating, Blackgrass [9, 21]: 90
Plant response rating, Blackgrass [9, 22]: 90
Plant response rating, Blackgrass [9, 23]: 90
Plant response rating, Barnyardgrass (0 to 100 scale, 0 is no effect, 100 is complete control) [10]: 65

Cc1nn(-c2ccnc(Cl)c2)nc1Cc1ccnc(C(F)(F)F)c1 [Compound 141]
Plant response rating, Chickweed [1, 11]: 80
Plant response rating, Chickweed [1, 12]: 90
Plant response rating, Chickweed [1, 13]: 98
Plant response rating, Chickweed ([1]; 250 g ai/ha, scale 0 to 100): 100
Plant response rating, Pigweed [2, 14]: 100
Pigweed plant response rating ([2]; Postemergence, 500 g ai/ha): 100
Plant response rating, Pigweed [2, 15]: 100
Plant response rating, Pigweed [2, 16]: 100
Plant response rating, Ragweed [3, 28]: 60
Plant response rating, Ragweed [3, 17]: 70
Plant response rating, Ragweed [3, 19]: 85
Foxtail, Giant plant response rating [4, 24]: 90
Foxtail, Giant plant response rating [4, 25]: 90
Plant response rating, Foxtail, Giant [4, 26]: 100
Plant response rating, Foxtail, Giant [4, 27]: 100
Plant response rating, Wheat [5, 14]: 20
Wheat plant response rating ([5]; Postemergence, 500 g ai/ha): 50
Plant response rating, Wheat [5, 15]: 0
Plant response rating, Wheat [5, 16]: 20
Plant response rating, Morningglory [6, 28]: 85
Plant response rating, Morningglory [6, 17]: 85
Plant response rating, Morningglory [6, 18]: 95
Crabgrass, Large plant response rating [7, 24]: 90
Crabgrass, Large plant response rating [7, 25]: 90
Plant response rating, Crabgrass, Large [7, 26]: 100
Plant response rating, Crabgrass, Large [7, 27]: 100
Plant response rating, Velvetleaf [8, 14]: 70
Velvetleaf plant response rating ([8]; Postemergence, 500 g ai/ha): 90
Plant response rating, Velvetleaf [8, 15]: 20
Plant response rating, Velvetleaf [8, 16]: 60
Plant response rating, Blackgrass [9, 28]: 20
Plant response rating, Blackgrass [9, 17]: 20
Plant response rating, Blackgrass [9, 18]: 35
Plant response rating, Blackgrass [9, 19]: 75
Plant response rating, Barnyardgrass (0 to 100 scale, 0 is no effect, 100 is complete control) [10]: 20
